Reference: US12551460B2, “Methods and compositions comprising cationic lipids for stimulating type 1 interferon genes” (PDS BIOTECHNOLOGY COPORATION, priority 2017, dated 2026)
Entries after “also recorded” stand apart in the source; their conditions may differ.

Experiments:
[1] = system: type I interferon genes; assay: IFNα and IFNβ gene expression in popliteal draining lymph nodes (Taqman gene expression assay, RT-PCR); format: in vivo, C57BL/6J mice; conditions: 50 μl of 6 mM nanoparticles s.c. foot pads; popliteal DLN; 3 h or 24 h
Description: The data in FIG. 2 corresponds to an experiment wherein C57BL/6J mice (n=2) were injected with 50 μl of 6 mM R-DOTAP or S-DOTAP nanoparticles subcutaneously in the foot pads. Mice injected with PBS, and LPS (50 μg/mouse) (24 h time point) were used as negative and positive controls respectively. 3 h or 24 hr after injection, popliteal draining lymph nodes from each mouse were pooled and lysed in RLT buffer and processed for relative gene expression analysis using Taqman gene expression assay and RT-PCR.
RNA isolation, Nano string Analysis, and gene expression assay: For gene expression analysis, draining popliteal lymph nodes (n=4) were enzymatically digested using cell dissociation cocktail for 60 min at 37° C., and single cell suspensions were used to sort CD11c+ ells using Sony SY3200 cell sorter. Sort purified CD11c+ cells (25K cells) were lysed in Qiagen's RLT cell lysis buffer (Qiagen, USA) and total RNA was isolated using Qiagen total RNA isolation kit (Qiagen, USA). […] Binding of mRNA was detected with Nanso String nCounter analysis system, and raw count data was normalized and statistically analyzed using SAS program by UK genomics core laboratory. For confirmation studies using RT-PCR, the lymph nodes were directly lysed in RLT cell lysis buffer, and the total isolation RNA was reverse transcribed to cDNA using QuantiTect reverses transcription kit (Qiagen, USA). […]

[2] = system: type I interferon genes; assay: Inflammatory gene expression in sorted CD11c+ cells of draining lymph nodes (nCounter mouse inflammation kit, nanostring); format: in vivo, C57BL/6J mice
Description: The data in FIG. 1 corresponds to an experiment wherein C57BL/6J mice (n=4) were injected with 100 μl of 12 mM R-DOTAP liposome nanoparticles subcutaneously behind the neck. Mice injected with PBS, and LPS (50 μg/mouse) (24 h time point) were used as negative and positive controls respectively. 4 h or 24 hr after injection, axillary and brachial draining lymph nodes from each mouse were pooled and processed by collagenase digestion. CD11c positive cells (˜20,000 cells) in these lymph node cell suspensions were sort-purified and lysed in RLT buffer and processed for relative gene expression analysis using nCounter® mouse inflammation kit and nanostring technologies.
RNA isolation, Nano string Analysis, and gene expression assay: For gene expression analysis, draining popliteal lymph nodes (n=4) were enzymatically digested using cell dissociation cocktail for 60 min at 37° C., and single cell suspensions were used to sort CD11c+ ells using Sony SY3200 cell sorter. Sort purified CD11c+ cells (25K cells) were lysed in Qiagen's RLT cell lysis buffer (Qiagen, USA) and total RNA was isolated using Qiagen total RNA isolation kit (Qiagen, USA). Total RNA obtained was sent to University of Kentucky genomics core laboratory (Lexington, KY) where total RNA was mixed with Ncounter™ mouse inflammation panel (Nano String Technologies, Seattle, WA) which can measure over 547 genes involved in immune response. Binding of mRNA was detected with Nanso String nCounter analysis system, and raw count data was normalized and statistically analyzed using SAS program by UK genomics core laboratory. For confirmation studies using RT-PCR, the lymph nodes were directly lysed in RLT cell lysis buffer, and the total isolation RNA was reverse transcribed to cDNA using QuantiTect reverses transcription kit (Qiagen, USA). The cDNA was then amplified using TaqMan gene expression system (Applied biosystems, USA) to detect and quantify mouse IFNα and IFNβ transcripts relative to GAPDH expression using quantitative PCR reaction.
To assess cationic nanoparticle induced gene expression, C57BL/6J mice were injected with 100 μl of 12 mM R-DOTAP nanoparticles subcutaneously behind the neck, and inflammatory gene expression in draining lymph nodes analyzed 4 or 24 hours post vaccination. Mice injected with PBS, and LPS (50 μg/mouse) (24 h time point) were used as negative and positive controls respectively. 4 h or 24 hr after injection, axillary and brachial draining lymph nodes from each mouse were pooled and processed by collagenase digestion. Activated dendritic cells (CD11c^+) cells in the lymph node cell suspensions were sort-purified and lysed in RLT buffer and processed for relative gene expression analysis using nCounter® mouse inflammation kit and nanostring technologies.

[3] = system: draining lymph nodes; assay: Cell recruitment: size and total cell number of draining lymph nodes; format: in vivo, C57BL/6J mice or IFNAR−/− mice
Description: (§1) The data in FIG. 3 corresponds to an experiment wherein A) C57BL/6J mice (n=3) were injected with 50 μl of 6 mM R-DOTAP or 280 mM Sucrose subcutaneously in the foot pads. At indicated times popliteal draining lymph nodes from each mouse were isolated and single suspensions of lymph nodes were enumerated using hemocytometer to obtain total cell numbers. B) C57BL/6J (n=3) or IFNAR−/− (n=3) mice were injected with 50 μl of 6 mM R-DOTAP or 280 mM sucrose in the foot pad and draining popliteal lymph nodes were harvested from each mouse and enzymatically digested lymph nodes were assessed for the total cell number at 24 hr (B) using hemocytometer and expression of CD69 on CD3+ T cells (B) was assessed using flowcytometry. A-B) data represent total number of cells in each draining lymph node. C) Data represent percent CD69+ cells each group 24 hr after vaccination (n=3 mice per group).
To further understand the effect and ability of cationic lipids to activate the type I interferons, C57BL/6J mice or IFNAR−/− mice were injected with 50 μl of 6 mM R-DOTAP nanoparticles or 6 mM S-DOTAP or 280 mM sucrose subcutaneously in the foot pads. 24 hr after injection, popliteal draining lymph nodes from each mouse were isolated and single cell suspensions of lymph nodes were stained with fluorochrome conjugated CD3 and CD69. […] Type I IFN is known to inhibit lymphocyte egress from lymphoid organs through the up-regulation of CD69 which, in turn, inhibits the sphingosine 1 phosphate receptor required for lymphocyte egress. We therefore postulated that injection of both S-DOTAP and R-DOTAP would result in the upregulation of CD69 in the DLN. […] The data represents % CD69+CD3+ T cells in each draining lymph node.

[4] = system: CD69; assay: CD69 expression on CD3+ T cells in draining lymph nodes (flow cytometry); format: in vivo, C57BL/6J mice or IFNAR−/− mice; conditions: 24 hr
Description: as §1
IFN reporter cell assay and Cell phenotypic analysis: For detecting IFN, the supernatants from type I IFN producing cells were added to B16-Blue™ IFN-α/β Cells in a 96 well plate. After 24 hr incubation, the supernatants were assayed for SEAP activity using QUANTI-Blue™ reagent (InvivoGen, USA) according to manufacturer's instructions. Briefly, 50 μl of cell supernatants containing SEAP was mixed with 150 μl QUANTI-Blue™ reagent and incubated for 3-4 hr at 37° C. and absorbance was measured at 650 nm using a spectrometer. The concentrations of type I IFN in test samples were quantified using a standard curve generated from recombinant type I IFNβ treated B16-Blue™ IFN-α/β Cells in the same assay. To measure CD69 expression, single cell suspensions of lymph nodes were stained with fluorochrome conjugated CD3, and CD69 and percent CD69+CD3+ T cells in each draining lymph node were measured using flowcytometry.
To further understand the effect and ability of cationic lipids to activate the type I interferons, C57BL/6J mice or IFNAR−/− mice were injected with 50 μl of 6 mM R-DOTAP nanoparticles or 6 mM S-DOTAP or 280 mM sucrose subcutaneously in the foot pads. […]

[5] = wild type mice, 50 μl of 6 mM s.c. foot pads

CCCCCCCC/C=C\CCCCCCCC(=O)OC[C@@H](C[N+](C)(C)C)OC(=O)CCCCCCC/C=C\CCCCCCCC [R-DOTAP, (R)-1,2-dioleoyl-3-trimethylammonium propane]
Type I interferon (IFNα, IFNβ) gene expression, RT-PCR [1]: strong inducers; also recorded: up-regulation | Expression of IFN-1α and IFN-1β, increase relative to LPS positive control ([2]; 100 μl of 12 mM nanoparticles s.c. behind the neck, CD11c+ cells of axillary and brachial DLN, 4 or 24 h, LPS 50 μg/mouse): greater than 5 fold | Expression of several inflammatory genes ([2]; 100 μl of 12 mM s.c., both time points (4 h, 24 h)): significantly alter | Expression of other genes including Cxc110 ([2]; 100 μl of 12 mM s.c., compared with LPS): significantly increased and more comparable to levels induced by LPS | Type I interferon gene expression (nanostring) ([2]; FIG. 1, mean of 4 mice): up-regulation | DLN size ([3]; 50 μl of 6 mM s.c. foot pads, without antigen, wild type mice): visible increase | Increase in total cell number in DLN in IFNαR knock-out mouse versus wild type ([3]; IFNαR knock-out mouse, 24 hr): greatly reduced | Total cell number in DLN ([3]; wild type mice, over a 7-day period): steady increase | CD69 expression in DLN T cells ([4]; IFNαR knock-out mice): no CD69 upregulation | CD69 expression in DLN T cells [4, 5]: up-regulation of CD69 most strongly in T cells

CCCCCCCC/C=C\CCCCCCCC(=O)OCC(C[N+](C)(C)C)OC(=O)CCCCCCC/C=C\CCCCCCCC (stereo not drawn) [S-DOTAP, 1,2-dioleoyl-3-trimethyl ammonium-propane]
Type I interferon (IFNα, IFNβ) gene expression, RT-PCR [1]: strong inducers; also recorded: up-regulation | CD69 expression in DLN T cells [4, 5]: up-regulation of CD69 most strongly in T cells
